Measured values as given in BindingDB's records for patent US8623892 (Viamet Pharmaceuticals, 2014).

Target: T1, Steroid 17-alpha-hydroxylase/17,20 lyase (Rattus norvegicus, UniProt P11715)
T1 sequence (P11715 whole entry): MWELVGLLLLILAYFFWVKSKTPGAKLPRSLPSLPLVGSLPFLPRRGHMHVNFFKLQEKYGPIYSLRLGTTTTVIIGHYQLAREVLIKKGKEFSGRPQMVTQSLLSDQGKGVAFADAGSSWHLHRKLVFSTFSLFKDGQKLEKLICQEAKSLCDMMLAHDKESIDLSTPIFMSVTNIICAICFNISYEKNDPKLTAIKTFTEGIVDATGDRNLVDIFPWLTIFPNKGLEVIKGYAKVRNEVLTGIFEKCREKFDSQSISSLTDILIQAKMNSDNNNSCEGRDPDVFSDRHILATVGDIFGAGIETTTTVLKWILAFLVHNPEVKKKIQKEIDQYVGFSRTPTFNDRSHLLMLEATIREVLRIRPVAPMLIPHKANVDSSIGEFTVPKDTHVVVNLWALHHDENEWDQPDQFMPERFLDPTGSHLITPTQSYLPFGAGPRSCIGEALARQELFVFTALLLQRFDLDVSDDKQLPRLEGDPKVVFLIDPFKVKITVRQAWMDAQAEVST
Test: Inhibition Assay
Excerpt: If a weakly binding metal-binding group is utilized, potency may be suboptimal. On the other hand, if a very tightly binding metal-binding group is utilized, selectivity for the target enzyme versus related metalloenzymes may be suboptimal. The lack of optimal selectivity can be a cause for clinical toxicity due to unintended inhibition of these off-target metalloenzymes. […] It is believed that this off-target inhibition is caused primarily by the indiscriminate binding of the currently utilized 1-imidazole to iron in the active site of CYP2C9, CYP2C19 and CYP3A4.

IC50: 220 nM
SMILES: CC(C)C(O)(c1ccc2cc(OC(F)F)c(OC(F)F)cc2c1)c1c[nH]nn1 (stereo unspecified) [US8623892, 3]
